Laboratory results from paper PMC9002265, “A New Series of Strigolactone Analogs Derived From Cinnamic Acids as Germination Inducers for Root Parasitic Plants” (Frontiers in Plant Science, 2022).

Test system: Arabidopsis max4 mutant
Assay: Shoot branching assay, hydroponic culture
Type: in vivo
Conditions: 1 μM in hydroponic culture
Experimental: Sterilized seeds of the Arabidopsis max4-8 mutant were put on the rockwool which was soaked in Noren’s hydroponic solution ([Noren et al., 2004]) and cultured at 22°C for 14 days under LED light (105 μmol/m^2/s) with a 16 h light/8 h dark photoperiod. Seedlings were transferred to a plastic pot containing 800 ml of hydroponic culture and grown under the same conditions for additional 15 or 16 days. Test compounds were dissolved in acetone and added to hydroponic culture. The final concentration of test compounds was 1 or 5 μM and acetone was adjusted to 0.01% (v/v). The hydroponic culture was renewed after 7 days. The number of rosette branches (>5 mm) was counted. In the experience at 5 μM concentration, fresh weight of shoot was also measured to evaluate the side effects of tested compounds.

CC1=CC(O/C=C2\CCOC2=O)OC1=O (stereo not shown) [GR5]
shoot branching inhibition of max4: clearly inhibited shoot branching
